Here are results for 1 compound from patent US9290464B2 (priority 2010, dated 2016).

One experiment relates to 6-OHDA-induced rat. Kind of experiment: Decrease in neurons of substantia nigra pars compacta in 6-OHDA-induced rat (TH immunohistochemistry and cresyl violet staining). It counts as in vivo, Wistar rats. The settings on record: FIG. 6. How it is done:
Wistar rats provided by ORIENT BIO INC. (excipient and CBI n=7, rasagiline n=6; 6-week-old; 20 male rats) were used as an experimental model. One-side injection of 3 μl of a solution containing 20 μg/μl of 6-OHDA was performed on the striatum of each rat (position: front—1.0 mm, rear—3.0 mm, postabdomen side—5.0 mm), thereby inducing the degeneration of neurons in the striatum. […] 4, 5 and 6 weeks after the last day of administration, an apomorphine-induced rotation test was performed on each group. The apomorphine-induced rotation test was performed in such a manner that 0.5 mg/kg of apomorphine was administered to each group of rats via intraperitoneal injection, each group of rats was placed in a rotor chamber, and the rotary movement thereof was recorded for 45 minutes, and thus the number of rotation per minute of each group of rats was measured to determine the average value thereof. In addition, after the apomorphine-induced rotation test performed 6 weeks after the last day of administration, each group of rats was sacrificed, and thus the extent of a decrease in neurons of substantia nigra pars compacta was confirmed using immunohistochemistry staining using an antibody against tyrosine hydroxylase and cresyl violet staining.

A further experiment concerns malonate-induced mouse. In words: Striatum damage in malonate-induced mouse (TTC staining). Format: in vivo, ICR mice. The settings on record: 5 mg/kg i.p., five times; TTC staining 3 days after malonate; FIGS. 7 and 8. How it is done:
5 ml/kg of equithesin was administered to each mouse via intraperitoneal injection to be anesthetized, two levelers of a stereotactic instrument were set at 0 mm from both external auditory canals, and the skull of the mouse was perforated in the stereotactic instrument. 0.2 mg/ml of ascorbic acid was used as a control, and 2.4 umole/2 of malonate was injected into a lesion group and a compound treatment group 0.5 mm forward (AP) and 1.2 mm sideward from striatum on the right side (bregma) and 3.1 mm downward from dura matter by using a Hamilton syringe (10 μl, 26G needle) at a rate of 1 uL/min. The groups administered with malonate were divided into two groups, and 0.5 ml/kg of excipient (n=12) and 5 mg/kg of CBI (n=14) were respectively administered to the two groups via intraperitoneal injection 2 hours before an operation and administered again 1 hour, 1 day, 2 days and 3 days after the operation, i.e., total five times. Malonate was injected into striatum of the mouse, the mouse was sacrificed after 3 days, and the brain was taken out of the mouse to prepare a section. Thereafter, the section was stained with 2,3,5-triphenyltetrazolium chloride (TTC).

In experiment [1] the test system is MAO-B-deficient human neuroblastoma SH-SY5Y cells. In words: Apoptosis induced by serum starvation in neuroblastoma cells. It counts as cell-based. The note with it: serum-free medium, FIG. 9. How it is done:
In this embodiment, MAO-B-deficient human neuroblastoma SH-SY5Y cells (Korean Cell Line Bank) were used. Apoptosis of the human neuroblastoma cells was induced by serum starvation. The MAO-B-deficient human neuroblastoma SH-SY5Y cells cultured in a normal medium were distributed into a 6-well plate at a concentration of 1.8×10^5 cells/well and incubated for 1 day, the medium was exchanged with a serum-free medium containing CBI (0.1, 1 and 10), a serum-free medium containing rasagiline (0.1, 1 and 10), or a serum-free medium containing neither CBI or rasagiline, and the cell was further incubated in 5% CO2 at 37° C. for 48 hours.

A further experiment deals with Bcl-xL. Kind of experiment: Amount of Bcl-xL protein by western blotting in apoptosis-induced cells. Format: cell-based, human. The note with it: serum-free medium, 24 hours; FIG. 11. The text has this: Meanwhile, a variety of signal transduction proteins are involved in a process for mediating or inhibiting apoptosis, and representative examples thereof include Bcl-2 gene family proteins (Journal of Bioenergetics and Biomembranes, 37:179-190 (2005); J. Cell Mol. Med., 7:249-257 (2003); Genes and Development, 13:1899-1911 (1999)). Thus, 0.1, 1 and 10 of CBI or 0.1, 1 and 10 of rasagiline were respectively added to the apoptosis-induced cells as described above, the resulting cells were further incubated in 5% of CO2 at 37° C. for 24 hours, mRNA was extracted from the cultured cells or a cell extract was obtained therefrom, and thus the amount of Bcl-2 mRNA and the amounts of Bcl-2 and Bcl-xL proteins were measured. The amount of Bcl-2 mRNA was measured by real-time RT-PCR, and the amounts of Bcl-2 and Bcl-xL proteins were measured by western blotting.
For western blotting, the SH-SY5Y cells were lysed with RIPA buffer (50 mM Tris-Cl pH 7.4, 1% NP-40, 0.25% sodium deoxycholate, 0.1% SDS, 150 mM NaCl, 1 mM EDTA) and then centrifuged to obtain a cell extract. […]

Experiment [2] relates to MAO-B-deficient human neuroblastoma SH-SY5Y cells. Kind of experiment: Reactive oxygen species (DCF-DA staining) in MPP+-treated cells. Format: cell-based. The settings on record: 2 mM MPP+, 50 nM, 24 hours; FIGS. 19 and 20. As for the experimental part: In this embodiment, MAO-B-deficient human neuroblastoma SH-SY5Y cells (Korean Cell Line Bank) were used. The cells were cultured in a DMEM medium at 37° C. with 5% of CO2 for 24 hours. The cultured cells were divided into three groups, 2 mM of MPP^+ was added to each group, one of the three groups was treated with 50 nM of CBI, one of the other two groups was treated with 50 nM of rasagiline, and the three groups were further incubated with 5% of CO2 at 37° C. for 24 hours. The group with only MPP^+ added thereto was incubated under the same conditions as described above. Subsequently, the cells were stained with 2,7-dichlorofluorescein diacetate (DCF-DA), which is a fluorescence dye capable of detecting reactive oxygen species, and then observed using a confocal microscope (Nikon Co., Japan).

For the next experiment, the system named is SOD. In words: Activity of SOD in striatum and substantia nigra of mouse. Format: in vivo, C57BL/6 mice. The note with it: 1 mg/kg oral for 8 days, no neurotoxin; FIG. 22.
The next experiment deals with GPx. In words: Activity of GPx in striatum and substantia nigra of mouse. The settings on record: 1 mg/kg oral for 8 days, no neurotoxin, FIG. 22. It counts as in vivo, C57BL/6 mice.

Method for SOD: Next day after the last day of administration, striatum and substantia nigra tissues were taken out of each group of mice. Cell extracts were obtained from the cells of the tissues, and thus the activities of the catalase, SOD and GPx were measured.

For the compound `NC(=O)OCc1cc(-c2ccc(OCc3ccccc3)cc2)no1` [CBI, carbamic acid 3-(4-benzyloxy-phenyl)-isoxazole-5-yl methylester], the “effect on decrease in neurons compared with rasagiline group” value in the experiment with 6-OHDA-induced rat (1 mg/kg oral each) was “superior effect”. In addition, the “extent of a decrease in neurons of substantia nigra pars compacta” value in the experiment on 6-OHDA-induced rat (1 mg/kg oral, 1 hour before 6-OHDA and once every other day for 6 weeks) is reported as “significantly decreased extent of a decrease in neurons”. In addition, the “damaged regions of the striatum induced by malonate” value in the experiment with malonate-induced mouse was “significantly reducing damaged regions of the striatum”. The “higher extent of a decrease in the apoptosis of neurons than with 10 of rasagiline” value in experiment [1] (10 (unit not given), 48 hours) is “about 33%”. For the same compound, the “extent of the apoptosis of neurons” value in experiment [1] (48 hours, 0.1, 1 and 10 (unit not given)) is listed as “decreased”. Moreover, the “amount of Bcl-xL relative to control” value in the experiment with Bcl-xL is “larger than that in the control”. In experiment [2], the reactive oxygen species entry was “significantly decreased”. In the experiment on SOD, the “activity of the SOD” value is “no significant change”. In addition, the “increase of the activity of the GPx in substantia nigra” value in the experiment on GPx is recorded as “about 28%”.
